Measurements from US10034476B2, “Insecticidal phenyl-or pyridyl-piperdine compounds” (Syngenta Participations AG, priority 2008, dated 2018).

Assays:
Assay type in all cases: in vivo
Spodoptera littoralis = Spodoptera littoralis (Egyptian cotton leafworm) cotton leaf disc spray test; settings: foliar, 72 h, 200 ppm spray on cotton leaf discs, L1 larvae, 3 DAT, mortality, feeding behavior, growth regulation
Description: Spodoptera littoralis (Egyptian Cotton Leafworm) Cotton leaf discs were placed on agar in a 24-well microtiter plate and sprayed with test solutions at an application rate of 200 ppm. After drying, the leaf discs were infested with 5 L1 larvae. The samples were checked for mortality, feeding behavior, and growth regulation 3 days after treatment (DAT).

Heliothis virescens = Heliothis virescens (tobacco budworm) egg/artificial diet test; settings: 96 h, 200 ppm (concentration in well 18 ppm), eggs 0-24 h old on artificial diet, 4 days, egg mortality, larval mortality, growth regulation
Experimental: Heliothis virescens (Tobacco Budworm): Eggs (0-24 h old) were placed in 24-well microtiter plate on artificial diet and treated with test solutions at an application rate of 200 ppm (concentration in well 18 ppm) by pipetting. After an incubation period of 4 days, samples were checked for egg mortality, larval mortality, and growth regulation.

Plutella xylostella = Plutella xylostella (diamond back moth) artificial diet test; settings: 144 h, 200 ppm (concentration in well 18 ppm), L2 larvae, 6 days, larval mortality, growth regulation
Experimental: (§1) Plutella xylostella (Diamond Back Moth): 24-well microtiter plate (MTP) with artificial diet was treated with test solutions at an application rate of 200 ppm (concentration in well 18 ppm) by pipetting. After drying, the MTP's were infested with L2 larvae (7-12 per well). After an incubation period of 6 days, samples were checked for larval mortality and growth regulation.

Diabrotica balteata = Diabrotica balteata (corn root worm) artificial diet test; settings: 120 h, 200 ppm (concentration in well 18 ppm), L2 larvae, 5 days, larval mortality, growth regulation
Experimental: as §1, with “Diabrotica Balteata (Corn Root Worm): A” for “Plutella xylostella (Diamond Back Moth):”, “with” for “with L2”, “(L2) (6-10” for “(7-12”, “5” for “6”, “mortality,” for “mortality”

Measured: pest or weed control at 200 ppm

O=C(Nc1cc(F)c(F)cc1C1CCN(Cc2ccc(-c3ccc(F)cc3)cc2)CC1)c1ccnc(Cl)c1 [Compound A3, 2-chloro-N-{4,5-difluoro-2-[1-(4′-fluoro-biphenyl-4-ylmethyl)-piperidin-4-yl]-phenyl}-isonicotinamide]
≥ 80%: all assays above

O=C(Nc1cc(F)c(F)cc1C1CC[N+]([O-])(Cc2ccc(-c3ccc(F)cc3)cc2)CC1)c1ccnc(Cl)c1 (centres unmarked) [Compound B1, 2-chloro-N-{4,5-difluoro-2-[1-(4′-fluoro-biphenyl-4-ylmethyl)-1-oxy-piperidin-4-yl]-phenyl}-isonicotinamide]
≥ 80%: all assays above

O=C(Nc1cc(F)c(Br)nc1C1CCN(Cc2ccc(-c3ccc(F)cc3)cc2)CC1)c1ccnc(Cl)c1 [Compound C5, N-[6-bromo-5-fluoro-1′-(4′-fluoro-biphenyl-4-ylmethyl)-1′,2′,3′,4′,5′,6′-hexahydro-[2,4′]bipyridinyl-3-yl]-2-chloro-isonicotinamide]
≥ 80%: all assays above

O=C(Nc1ccc(C(F)F)nc1C1CCN(Cc2ccc(-c3ccc(F)cc3)cc2)CC1)c1ccnc(Cl)c1 [Compound C6]
≥ 80%: all assays above

O=C(Nc1cc(Cl)c(OCC(F)(F)F)nc1C1CCN(Cc2ccc(-c3ccc(F)cc3)cc2)CC1)c1ccnc(Cl)c1 [Compound C9, 2-chloro-N-[5-chloro-1′-(4′-fluoro-biphenyl-4-ylmethyl)-6-(2,2,2-trifluoro-ethoxy)-1′,2′,3′,4′,5′,6′-hexahydro-[2,4′]bipyridinyl-3-yl]-isonicotinamide]
≥ 80%: all assays above

COc1ccc(NC(=O)c2ccnc(Cl)c2)c(C2CCN(Cc3ccc(-c4ccc(F)cc4)cc3)CC2)n1 [Compound C10, 2-chloro-N-[1′-(4′-fluoro-biphenyl-4-ylmethyl)-6-methoxy-1′,2′,3′,4′,5′,6′-hexahydro-[2,4′]bipyridinyl-3-yl]-isonicotinamide]
≥ 80%: all assays above

C=Cc1ccc(NC(=O)c2ccnc(Cl)c2)c(C2CCN(Cc3ccc(-c4ccc(F)cc4)cc3)CC2)n1 [Compound C11, 2-chloro-N-[1′-(4′-fluoro-biphenyl-4-ylmethyl)-6-vinyl-1′,2′,3′,4′,5′,6′-hexahydro-[2,4′]bipyridinyl-3-yl]-isonicotinamide]
≥ 80%: all assays above

O=C(Nc1cc(Cl)c(C2CC2)nc1C1CCN(Cc2ccc(-c3ccc(F)cc3)cc2)CC1)c1ccnc(Cl)c1 [Compound C13, 2-chloro-N-[5-chloro-6-cyclopropyl-1′-(4′-fluoro-biphenyl-4-ylmethyl)-1′,2′,3′,4′,5′,6′-hexahydro-[2,4′]bipyridinyl-3-yl]-isonicotinamide]
≥ 80%: all assays above

O=C(Nc1cc(C(F)(F)F)c(Br)nc1C1CCN(Cc2ccc(-c3ccc(F)cc3)cc2)CC1)c1ccnc(Cl)c1 [Compound C15]
≥ 80%: all assays above

O=C(Nc1cc(C(F)(F)F)c(Cl)nc1C1CCN(Cc2ccc(-c3ccc(F)cc3)cc2)CC1)c1ccnc(Cl)c1 [Compound C16]
≥ 80%: all assays above

O=C(Nc1cc(F)c(Cl)nc1C1CCN(Cc2ccc(-c3ccc(F)cc3)cc2)CC1)c1ccnc(Cl)c1 [Compound C17, 2-chloro-N-[6-chloro-5-fluoro-1′-(4′-fluoro-biphenyl-4-ylmethyl)-1′,2′,3′,4′,5′,6′-hexahydro-[2,4′]bipyridinyl-3-yl]-isonicotinamide]
≥ 80%: all assays above

O=C(Nc1cc(Br)cnc1C1CCN(Cc2ccc(-c3ccc(F)cc3)cc2)CC1)c1ccnc(Cl)c1 [Compound C23, N-[5-bromo-1′-(4′-fluoro-biphenyl-4-ylmethyl)-1′,2′,3′,4′,5′,6′-hexahydro-[2,4′]bipyridinyl-3-yl]-2-chloro-isonicotinamide]
≥ 80%: all assays above

O=C(Nc1cc(Br)c(Cl)nc1C1CCN(Cc2ccc(-c3ccc(F)cc3)cc2)CC1)c1ccnc(Cl)c1 [Compound C24, N-[5-bromo-6-chloro-1′-(4′-fluoro-biphenyl-4-ylmethyl)-1′,2′,3′,4′,5′,6′-hexahydro-[2,4′]bipyridinyl-3-yl]-2-chloro-isonicotinamide]
≥ 80%: all assays above

O=C(Nc1cc(F)c(F)nc1C1CCN(Cc2ccc(-c3ccc(F)cc3)cc2)CC1)c1ccnc(Cl)c1 [Compound C25, 2-chloro-N-{1′-(4′-fluoro-biphenyl-4-ylmethyl)-5,6-difluoro-1′,2′,3′,4′,5′,6′-hexahydro-[2,4′]bipyridinyl-3-yl}-isonicotinamide]
≥ 80%: all assays above

Cc1cc(NC(=O)c2ccnc(Cl)c2)c(C2CCN(Cc3ccc(-c4ccc(F)cc4)cc3)CC2)nc1Cl [Compound C26, 2-chloro-N-[6-chloro-1′-(4′-fluoro-biphenyl-4-ylmethyl)-5-methyl-1′,2′,3′,4′,5′,6′-hexahydro-[2,4′]bipyridinyl-3-yl]-isonicotinamide]
≥ 80%: all assays above

O=C(Nc1c(C2CCN(Cc3ccc(-c4ccc(F)cc4)cc3)CC2)nc(Cl)c(Cl)c1Cl)c1ccnc(Cl)c1 [Compound C30, 2-chloro-N-{4,5,6-trichloro-1′-(4′-fluoro-biphenyl-4-ylmethyl)-1′,2′,3′,4′,5′,6′-hexahydro-[2,4′]bipyridinyl-3-yl}-isonicotinamide]
≥ 80%: all assays above

O=C(Nc1cc(C(F)(F)F)c(F)nc1C1CCN(Cc2ccc(-c3ccc(F)cc3)cc2)CC1)c1ccnc(Cl)c1 [Compound C31, 2-chloro-N-{1′-(4′-fluoro-biphenyl-4-ylmethyl)-6-fluoro-5-trifluoromethyl-1′,2′,3′,4′,5′,6′-hexahydro-[2,4′]bipyridinyl-3-yl}-isonicotinamide]
≥ 80%: all assays above

O=C(Nc1ccc(OC(F)F)nc1C1CCN(Cc2ccc(-c3ccc(F)cc3)cc2)CC1)c1ccnc(Cl)c1 [Compound C40, 2-chloro-N-{1′-(4′-fluoro-biphenyl-4-ylmethyl)-6-difluoromethoxy-1′,2′,3′,4′,5′,6′-hexahydro-[2,4′]bipyridinyl-3-yl}-isonicotinamide]
≥ 80%: all assays above

O=C(Nc1c(F)cc(C(F)(F)F)nc1C1CCN(Cc2ccc(-c3ccc(F)cc3)cc2)CC1)c1ccnc(Cl)c1 [Compound C41, 2-chloro-N-{1′-(4′-fluoro-biphenyl-4-ylmethyl)-4-fluoro-6-trifluoromethyl-1′,2′,3′,4′,5′,6′-hexahydro-[2,4′]bipyridinyl-3-yl}-isonicotinamide]
≥ 80%: all assays above

O=C(Nc1ccc(C(F)(F)F)nc1C1CC[N+]([O-])(Cc2ccc(-c3ccc(F)cc3)cc2)CC1)c1ccnc(Cl)c1 (centres unmarked) [Compound D1, 2-chloro-N-[1′-(4′-fluoro-biphenyl-4-ylmethyl)-1′-oxy-6-trifluoromethyl-1′,2′,3′,4′,5′,6′-hexahydro-[2,4′]bipyridinyl-3-yl]-isonicotinamide]
≥ 80%: all assays above
